# Assay results published in US20230322723A1, “COMPOUNDS FOR SUPPRESSING EGFR MUTANT CANCER AND PHARMACEUTICAL USE THEREOF” (J2H BIOTECH INC., priority 2020, published 2023).
# Columns and labels:
# EGFR^L858R+T790M+C797S = biological target: T1, EGFR^L858R+T790M+C797S (Homo sapiens, UniProt P00533, C797S/L858R/T790M); test: EGFR protein degradation test (Western blot) in Ba/F3 cells expressing mutant EGFR L858R+T790M+C797S (LTC); format: cell-based; conditions: compounds at 0.1 μM and 1 μM, 24 hours, Western blot with EGFR antibody
# T1 construct: expressed in transfected cells; host or cells: Ba/F3
# T1 sequence (P00533 25-1210 T790M/C797S/L858R): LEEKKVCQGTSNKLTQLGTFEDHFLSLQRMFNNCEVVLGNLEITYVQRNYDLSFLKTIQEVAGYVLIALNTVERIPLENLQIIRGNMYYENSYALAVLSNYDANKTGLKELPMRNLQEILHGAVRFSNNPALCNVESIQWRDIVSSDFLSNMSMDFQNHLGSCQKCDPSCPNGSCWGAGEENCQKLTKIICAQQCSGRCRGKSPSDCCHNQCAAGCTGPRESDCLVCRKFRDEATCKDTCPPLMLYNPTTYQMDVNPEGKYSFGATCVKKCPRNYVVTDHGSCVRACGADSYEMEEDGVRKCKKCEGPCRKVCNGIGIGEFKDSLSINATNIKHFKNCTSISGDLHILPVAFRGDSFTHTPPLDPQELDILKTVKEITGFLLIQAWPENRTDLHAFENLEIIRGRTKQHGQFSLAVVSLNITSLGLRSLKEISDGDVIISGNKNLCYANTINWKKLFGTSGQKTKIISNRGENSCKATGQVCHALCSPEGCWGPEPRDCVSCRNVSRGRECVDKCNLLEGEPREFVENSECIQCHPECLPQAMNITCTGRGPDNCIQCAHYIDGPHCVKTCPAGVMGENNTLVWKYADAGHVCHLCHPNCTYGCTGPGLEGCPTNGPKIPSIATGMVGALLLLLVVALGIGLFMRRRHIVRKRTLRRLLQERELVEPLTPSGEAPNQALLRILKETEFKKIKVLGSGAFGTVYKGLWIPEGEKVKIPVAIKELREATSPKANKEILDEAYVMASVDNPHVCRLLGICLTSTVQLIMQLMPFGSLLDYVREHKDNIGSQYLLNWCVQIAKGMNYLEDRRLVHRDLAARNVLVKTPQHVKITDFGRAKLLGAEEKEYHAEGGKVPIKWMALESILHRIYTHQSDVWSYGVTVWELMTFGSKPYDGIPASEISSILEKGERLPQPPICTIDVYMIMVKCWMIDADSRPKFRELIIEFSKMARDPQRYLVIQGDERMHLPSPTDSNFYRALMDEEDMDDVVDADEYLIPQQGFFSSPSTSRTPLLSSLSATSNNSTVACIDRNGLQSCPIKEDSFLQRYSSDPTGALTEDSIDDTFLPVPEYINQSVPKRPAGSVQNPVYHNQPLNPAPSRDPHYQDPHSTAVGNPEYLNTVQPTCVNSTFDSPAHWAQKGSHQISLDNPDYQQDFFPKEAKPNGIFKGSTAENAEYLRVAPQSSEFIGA
# Experimental: (§1) The ability of the compounds of the present invention to degrade the mutant EGFR protein was confirmed in Ba/F3 cells expressing normal EGFR, mutant EGFR^del19+T790M+C797S or mutant EGFR^L858R+T790M+C797S. A Western blot test using the EGFR antibody was performed.
# (§2) Specifically, Ba/F3 cells expressing EGFR were cultured in RPMI 1640 (Gibco, NY, USA) containing 10% fetal bovine serum (FBS, Gibco, NY, USA). Cells expressing normal EGFR, mutant EGFR^del19+T790M+C797S or mutant EGFR^L858R+T790M+C797S were treated with the compounds of the present invention at concentrations of 0.1 μM and 1 μM, respectively, for 24 hours. After that, it was washed twice with phosphate buffered saline (PBS) and SDS-PAGE was performed with 30 μg of cell lysate. After the protein separated on the gel was transferred to a nitrocellulose membrane, the expression level of the EGFR protein was confirmed using an EGFR antibody (Santa Cruz biotechnology, Santacruz, CA, USA). EGFR bands separated by Western blotting were quantitatively analyzed with Fluo-S MultiImager (Bio-Rad, Hercules, CA, USA).
# EGFR^del19+T790M+C797S = test: EGFR protein degradation test (Western blot) in Ba/F3 cells expressing mutant EGFR del19+T790M+C797S (DTC); format: cell-based; conditions: compounds at 0.1 μM and 1 μM, 24 hours, Western blot with EGFR antibody
# Experimental: as §1, §2
LTC (EGFR^L858R+T790M+C797S) protein degradation (EGFR^L858R+T790M+C797S),Compound,DTC (EGFR^del19+T790M+C797S) protein degradation (EGFR^del19+T790M+C797S)
− (Protein degradation < 20%),"Cc1ncsc1-c1ccc(CNC(=O)[C@H]2C[C@@H](O)CN2C(=O)[C@@H](NC(=O)CCCCN2CCN(C3CCN(c4ccc(Nc5ncc(Cl)c(Nc6ccccc6N(C)S(C)(=O)=O)n5)cc4F)CC3)CC2)C(C)(C)C)cc1 [Compound 18, (2R,4R)-1-((S)-2-(5-(4-(1-(4-((5-chloro-4-((2-(N-methylmethylsulfonamido)phenyl)amino)pyrimidin-2-yl)amino)-2-fluorophenyl)piperidin-4-yl)piperazin-1-yl)pentanamido)-3,3-dimethylbutanoyl)-4-hydroxy-N-(4-(4-methylthiazol-5-yl)benzyl)pyrrolidin-2-carboxamide]",− (Protein degradation < 20%)
+ (Protein degradation 20~80%),"Cc1ncsc1-c1ccc(CNC(=O)[C@H]2C[C@@H](O)CN2C(=O)[C@@H](NC(=O)CN2CCN(C3CCN(c4ccc(Nc5ncc(Cl)c(Nc6ccccc6N(C)S(C)(=O)=O)n5)cc4F)CC3)CC2)C(C)(C)C)cc1 [Compound 19, (2R,4R)-1-((S)-2-(2-(4-(1-(4-((5-chloro-4-((2-(N-methylmethylsulfonamido)phenyl)amino)pyrimidin-2-yl)amino)-2-fluorophenyl)piperidin-4-yl)piperazin-1-yl)acetamido)-3,3-dimethylbutanoyl)-4-hydroxy-N-(4-(4-methylthiazol-5-yl)benzyl)pyrrolidin-2-carboxamide]",++ (Protein degradation > 80%)
− (Protein degradation < 20%),"COc1cc(N2CCC(N3CCN(CC(=O)Nc4cccc5c4C(=O)N(C4CCC(=O)NC4=O)C5=O)CC3)CC2)ccc1Nc1ncc(Cl)c(Nc2ccccc2N(C)S(C)(=O)=O)n1 (centres unmarked) [Compound 21, 2-(4-(1-(4-((5-chloro-4-((2-(N-methylmethylsulfonamido)phenyl)amino)pyrimidin-2-yl)amino)-3-methoxyphenyl)piperidin-4-yl)piperazin-1-yl)-N-(2-(2,6-dioxopiperidin-3-yl)-1,3-dioxoisoindolin-4-yl)acetamide]",− (Protein degradation < 20%)
− (Protein degradation < 20%),"COc1cc(N2CCC(CN3CCN(CC(=O)Nc4cccc5c4C(=O)N(C4CCC(=O)NC4=O)C5=O)CC3)CC2)ccc1Nc1ncc(Cl)c(Nc2ccccc2N(C)S(C)(=O)=O)n1 (centres unmarked) [Compound 23, 2-(4-((1-(4-((5-chloro-4-((2-(N-methylmethylsulfonamido)phenyl)amino)pyrimidin-2-yl)amino)-3-methoxyphenyl)piperidin-4-yl)methyl)piperazin-1-yl)-N-(2-(2,6-dioxopiperidin-3-yl)-1,3-dioxoisoindolin-4-yl)acetamide]",− (Protein degradation < 20%)
− (Protein degradation < 20%),"COc1cc(N2CCC(CN3CCC(C(=O)N[C@H](C(=O)N4C[C@H](O)C[C@H]4C(=O)NCc4ccc(-c5scnc5C)cc4)C(C)(C)C)CC3)CC2)ccc1Nc1ncc(Cl)c(Nc2ccccc2N(C)S(C)(=O)=O)n1 [Compound 29, 1-((1-(4-((5-chloro-4-((2-(N-methylmethylsulfonamido)phenyl)amino)pyrimidin-2-yl)amino)-3-methoxyphenyl)piperidin-4-yl)methyl)-N—((S)-1-((2S,4R)-4-hydroxy-2-((4-(4-methylthiazol-5-yl)benzyl)carbamoyl)pyrrolidin-1-yl)-3,3-dimethyl-1-oxobutan-2-yl)piperidin-4-carboxamide]",− (Protein degradation < 20%)
− (Protein degradation < 20%),"COc1cc(N2CCC3(CCN(CCC(=O)Nc4cccc5c4C(=O)N(C4CCC(=O)NC4=O)C5=O)CC3)CC2)ccc1Nc1ncc(Cl)c(Nc2ccccc2N(C)S(C)(=O)=O)n1 (centres unmarked) [Compound 30, 3-(9-(4-((5-chloro-4-((2-(N-methylmethylsulfonamido)phenyl)amino)pyrimidin-2-yl)amino)-3-methoxyphenyl)-3,9-diazaspiro[5,5]undecan-3-yl)-N-(2-(2,6-dioxopiperidin-3-yl)-1,3-dioxoisoindolin-4-yl)propanamide]",− (Protein degradation < 20%)
− (Protein degradation < 20%),"COc1cc(N2CC3(CN(CCC(=O)Nc4cccc5c4C(=O)N(C4CCC(=O)NC4=O)C5=O)C3)C2)ccc1Nc1ncc(Cl)c(Nc2ccccc2N(C)S(C)(=O)=O)n1 (centres unmarked) [Compound 32, 3-(6-(4-((5-chloro-4-((2-(N-methylmethylsulfonamido)phenyl)amino)pyrimidin-2-yl)amino)-3-methoxyphenyl)-2,6-diazaspiro[3,3]heptan-2-yl)-N-(2-(2,6-dioxopiperidin-3-yl)-1,3-dioxoisoindolin-4-yl)propanamide]",− (Protein degradation < 20%)
− (Protein degradation < 20%),"COc1cc(N2CCC(CN3CC(C(=O)N[C@H](C(=O)N4C[C@H](O)C[C@H]4C(=O)NCc4ccc(-c5scnc5C)cc4)C(C)(C)C)C3)CC2)ccc1Nc1ncc(Cl)c(Nc2ccccc2N(C)S(C)(=O)=O)n1 [Compound 38, (2S,4R)-1-((S)-2-(1-((1-(4-((5-chloro-4-((2-(N-methylmethylsulfonamido)phenyl)amino)pyrimidin-2-yl)amino)-3-methoxyphenyl)piperidin-4-yl)methyl)azetidin-3-carboxamido)-3,3-dimethylbutanoyl)-4-hydroxy-N-(4-(4-methylthiazol-5-yl)benzyl)pyrrolidin-2-carboxamide]",− (Protein degradation < 20%)
+ (Protein degradation 20~80%),"CN(c1ccccc1Nc1nc(Nc2ccc(N3CCN(CCOC4CN(c5ccc6c(c5)C(=O)N(C5CCC(=O)NC5=O)C6=O)C4)CC3)c(F)c2)ncc1Cl)S(C)(=O)=O (centres unmarked) [Compound 40, N-(2-((5-chloro-2-((4-(4-(2-((1-(2-(2,6-dioxopiperidin-3-yl)-1,3-dioxoisoindolin-5-yl)azetidin-3-yl)oxy)ethyl)piperazin-1-yl)-3-fluorophenyl)amino)pyrimidin-4-yl)amino)phenyl)-N-methylmethanesulfonamide]",+ (Protein degradation 20~80%)

Compound,LTC (EGFR^L858R+T790M+C797S) protein degradation (EGFR^L858R+T790M+C797S),DTC (EGFR^del19+T790M+C797S) protein degradation (EGFR^del19+T790M+C797S)
"COc1cc(N2CCN(CC3CCN(CC(=O)Nc4cccc5c4C(=O)N(C4CCC(=O)NC4=O)C5=O)CC3)CC2)ccc1Nc1ncc(Cl)c(Nc2ccccc2N(C)S(C)(=O)=O)n1 (centres unmarked) [Compound 25, 2-(4-((4-(4-((5-chloro-4-((2-(N-methylmethylsulfonamido)phenyl)amino)pyrimidin-2-yl)amino)-3-methoxyphenyl)piperazin-1-yl)methyl)piperidin-1-yl)-N-(2-(2,6-dioxopiperidin-3-yl)-1,3-dioxoisoindolin-4-yl)acetamide]",− (Protein degradation < 20%),− (Protein degradation < 20%)
"COc1cc(N2CCN(CCOC3CN(c4ccc5c(c4)C(=O)N(C4CCC(=O)NC4=O)C5=O)C3)CC2)ccc1Nc1ncc(Cl)c(Nc2ccccc2N(C)S(C)(=O)=O)n1 (centres unmarked) [Compound 33, N-(2-((5-chloro-2-((4-(4-(2-((1-(2-(2,6-dioxopiperidin-3-yl)-1,3-dioxoisoindolin-5-yl)azetidin-3-yl)oxy)ethyl)piperazin-1-yl)-2-methoxyphenyl)amino)pyrimidin-4-yl)amino)phenyl)-N-methylmethanesulfonamide]",− (Protein degradation < 20%),+ (Protein degradation 20~80%)
"COc1cc(N2CCN(CCOC3CCN(c4ccc5c(c4)C(=O)N(C4CCC(=O)NC4=O)C5=O)CC3)CC2)ccc1Nc1ncc(Cl)c(Nc2ccccc2N(C)S(C)(=O)=O)n1 (centres unmarked) [Compound 34, N-(2-((5-chloro-2-((4-(4-(2-((1-(2-(2,6-dioxopiperidin-3-yl)-1,3-dioxoisoindolin-5-yl)piperidin-4-yl)oxy)ethyl)piperazin-1-yl)-2-methoxyphenyl)amino)pyrimidin-4-yl)amino)phenyl)-N-methylmethanesulfonamide]",− (Protein degradation < 20%),− (Protein degradation < 20%)
"CN(c1ccccc1Nc1nc(Nc2ccc(N3CCN(CCN4CC(Oc5cccc6c5CN(C5CCC(=O)NC5=O)C6=O)C4)CC3)c(F)c2)ncc1Cl)S(C)(=O)=O (centres unmarked) [Compound 39, N-(2-((5-chloro-2-((4-(4-(2-(3-((2-(2,6-dioxopiperidin-3-yl)-1-oxoisoindolin-4-yl)oxy)azetidin-1-yl)ethyl)piperazin-1-yl)-3-fluorophenyl)amino)pyrimidin-4-yl)amino)phenyl)-N-methylmethanesulfonamide]",+ (Protein degradation 20~80%),+ (Protein degradation 20~80%)
